Assay results reported in ChEMBL document CHEMBL3045868, “Synthesis and antibacterial activities of para-alkoxy phenyl--ketoaldehyde derivatives” (Med Chem Res, 2013).
≈ marks a conversion by molar mass, not a printed value.

What was measured:
Assay type in all cases: functional
Staphylococcus aureus [1] = experiment: Antibacterial activity against Staphylococcus aureus clinical isolate 2 assessed as growth inhibition after 16 to 18 hr by NCCLS agar dilution method
Staphylococcus aureus [2] = experiment: Bactericidal activity against Staphylococcus aureus clinical isolate 1 after 24 hr; conditions: isolate 1, 24 h
Staphylococcus aureus [3] = experiment: Bactericidal activity against methicillin-resistant Staphylococcus aureus isolate 4 after 24 hr; conditions: isolate 4, 24 h
Staphylococcus aureus [4] = experiment: Bactericidal activity against methicillin-resistant Staphylococcus aureus isolate 5 after 24 hr; conditions: isolate 5, 24 h
Staphylococcus aureus [5] = experiment: Antibacterial activity against Staphylococcus aureus ATCC 25923 assessed as growth inhibition after 16 to 18 hr by NCCLS agar dilution method
Staphylococcus aureus [6] = experiment: Antibacterial activity against methicillin-resistant Staphylococcus aureus assessed as growth inhibition after 16 to 18 hr by NCCLS agar dilution method
Staphylococcus aureus [7] = experiment: Bactericidal activity against methicillin-resistant Staphylococcus aureus after 24 hr
Staphylococcus aureus [8] = experiment: Bactericidal activity against Staphylococcus aureus clinical isolate 7 after 24 hr; conditions: isolate 7, 24 h
Staphylococcus aureus [9] = experiment: Bactericidal activity against Staphylococcus aureus clinical isolate 9 after 24 hr; conditions: isolate 9, 24 h
Staphylococcus aureus [10] = experiment: Antibacterial activity against Staphylococcus aureus clinical isolate 10 assessed as growth inhibition after 16 to 18 hr by NCCLS agar dilution method
Staphylococcus aureus [11] = experiment: Antibacterial activity against methicillin-resistant Staphylococcus aureus isolate 1 assessed as growth inhibition after 16 to 18 hr by NCCLS agar dilution method
Staphylococcus aureus [12] = experiment: Bactericidal activity against methicillin-resistant Staphylococcus aureus isolate 1 after 24 hr; conditions: isolate 1, 24 h
Staphylococcus aureus [13] = experiment: Antibacterial activity against methicillin-resistant Staphylococcus aureus isolate 5 assessed as growth inhibition after 16 to 18 hr by NCCLS agar dilution method
Staphylococcus aureus [14] = experiment: Antibacterial activity against methicillin-resistant Staphylococcus aureus isolate 3 assessed as growth inhibition after 16 to 18 hr by NCCLS agar dilution method
Staphylococcus aureus [15] = experiment: Antibacterial activity against methicillin-resistant Staphylococcus aureus isolate 2 assessed as growth inhibition after 16 to 18 hr by NCCLS agar dilution method
Staphylococcus aureus [16] = experiment: Bactericidal activity against Staphylococcus aureus clinical isolate 6 after 24 hr; conditions: isolate 6, 24 h
Staphylococcus aureus [17] = experiment: Bactericidal activity against Staphylococcus aureus clinical isolate 4 after 24 hr; conditions: isolate 4, 24 h
Staphylococcus aureus [18] = experiment: Bactericidal activity against Staphylococcus aureus clinical isolate 8 after 24 hr; conditions: isolate 8, 24 h
Pseudomonas aeruginosa = experiment: Antibacterial activity against Pseudomonas aeruginosa ATCC 27853 assessed as growth inhibition after 16 to 18 hr NCCLS agar dilution method
Staphylococcus aureus [19] = experiment: Antibacterial activity against Staphylococcus aureus clinical isolate 3 assessed as growth inhibition after 16 to 18 hr by NCCLS agar dilution method
Staphylococcus aureus [20] = experiment: Bactericidal activity against Staphylococcus aureus clinical isolate 2 after 24 hr; conditions: isolate 2, 24 h
Staphylococcus aureus [21] = experiment: Antibacterial activity against Staphylococcus aureus clinical isolate assessed as growth inhibition after 16 to 18 hr by NCCLS agar dilution method
Staphylococcus aureus [22] = experiment: Antibacterial activity against Staphylococcus aureus clinical isolate 4 assessed as growth inhibition after 16 to 18 hr by NCCLS agar dilution method
Staphylococcus aureus [23] = experiment: Bactericidal activity against Staphylococcus aureus clinical isolate 5 after 24 hr; conditions: isolate 5, 24 h
Staphylococcus aureus [24] = experiment: Antibacterial activity against Staphylococcus aureus clinical isolate 5 assessed as growth inhibition after 16 to 18 hr by NCCLS agar dilution method
Staphylococcus aureus [25] = experiment: Bactericidal activity against methicillin-resistant Staphylococcus aureus isolate 3 after 24 hr; conditions: isolate 3, 24 h
Staphylococcus aureus [26] = experiment: Antibacterial activity against Staphylococcus aureus clinical isolate 6 assessed as growth inhibition after 16 to 18 hr by NCCLS agar dilution method
Staphylococcus aureus [27] = experiment: Bactericidal activity against methicillin-resistant Staphylococcus aureus isolate 2 after 24 hr; conditions: isolate 2, 24 h
Staphylococcus aureus [28] = experiment: Antibacterial activity against Staphylococcus aureus clinical isolate 1 assessed as growth inhibition after 16 to 18 hr by NCCLS agar dilution method
Escherichia coli = experiment: Antibacterial activity against Escherichia coli ATCC 25922 assessed as growth inhibition after 16 to 18 hr NCCLS agar dilution method
Staphylococcus aureus [29] = experiment: Bactericidal activity against Staphylococcus aureus clinical isolate 10 after 24 hr; conditions: isolate 10, 24 h
Staphylococcus aureus [30] = experiment: Antibacterial activity against Staphylococcus aureus clinical isolate 9 assessed as growth inhibition after 16 to 18 hr by NCCLS agar dilution method
Staphylococcus aureus [31] = experiment: Bactericidal activity against Staphylococcus aureus clinical isolate 3 after 24 hr; conditions: isolate 3, 24 h
Staphylococcus aureus [32] = experiment: Antibacterial activity against methicillin-resistant Staphylococcus aureus isolate 4 assessed as growth inhibition after 16 to 18 hr by NCCLS agar dilution method
Staphylococcus aureus [33] = experiment: Antibacterial activity against Staphylococcus aureus clinical isolate 7 assessed as growth inhibition after 16 to 18 hr by NCCLS agar dilution method
Staphylococcus aureus [34] = experiment: Antibacterial activity against Staphylococcus aureus clinical isolate 8 assessed as growth inhibition after 16 to 18 hr by NCCLS agar dilution method
Staphylococcus aureus [35] = experiment: Bactericidal activity against Staphylococcus aureus clinical isolate after 24 hr

`C[C@H]1COc2c(N3CCN(C)CC3)c(F)cc3c(=O)c(C(=O)O)cn1c23.C[C@H]1COc2c(N3CCN(C)CC3)c(F)cc3c(=O)c(C(=O)O)cn1c23.O` [LEVOFLOXACIN] was tested, and the MIC (Staphylococcus aureus [1]) was 0.5 µg/mL, the MBC (Staphylococcus aureus [2]) was 0.25 µg/mL and the MBC (Staphylococcus aureus [3]) was greater than 16 µg/mL. The MBC (Staphylococcus aureus [4]) was greater than 16 µg/mL, the MIC (Staphylococcus aureus [5]) was 0.25 µg/mL and the MIC50 (Staphylococcus aureus [6]) was 16 µg/mL. It also gave an MIC90 (Staphylococcus aureus [6]) greater than 16 µg/mL, an MBC50 (Staphylococcus aureus [7]) greater than 16 µg/mL and an MBC90 (Staphylococcus aureus [7]) greater than 16 µg/mL. The MBC (Staphylococcus aureus [8]) was 0.25 µg/mL, the MBC (Staphylococcus aureus [9]) was 0.5 µg/mL and the MIC (Staphylococcus aureus [10]) was 0.5 µg/mL. The MIC (Staphylococcus aureus [11]) was 8 µg/mL, the MBC (Staphylococcus aureus [12]) was greater than 16 µg/mL and the MIC (Staphylococcus aureus [13]) was greater than 16 µg/mL. The MIC (Staphylococcus aureus [14]) was 16 µg/mL, the MIC (Staphylococcus aureus [15]) was 8 µg/mL and the MBC (Staphylococcus aureus [16]) was 0.5 µg/mL. For the same compound, the MBC (Staphylococcus aureus [17]) was 0.5 µg/mL, the MBC (Staphylococcus aureus [18]) was 0.25 µg/mL and the MIC (Pseudomonas aeruginosa) was 0.5 µg/mL. For the same compound, the MIC (Staphylococcus aureus [19]) was 0.25 µg/mL, the MBC (Staphylococcus aureus [20]) was 0.5 µg/mL and the MIC50 (Staphylococcus aureus [21]) was 0.25 µg/mL. It also gave an MIC90 (Staphylococcus aureus [21]) of 0.5 µg/mL, an MIC (Staphylococcus aureus [22]) of 0.25 µg/mL and an MBC (Staphylococcus aureus [23]) of 0.25 µg/mL. For the same compound, the MIC (Staphylococcus aureus [24]) was 0.125 µg/mL, the MBC (Staphylococcus aureus [25]) was greater than 16 µg/mL and the MIC (Staphylococcus aureus [26]) was 0.5 µg/mL. The MBC (Staphylococcus aureus [27]) was greater than 16 µg/mL, the MIC (Staphylococcus aureus [28]) was 0.25 µg/mL and the MIC (Escherichia coli) was 0.025 µg/mL. It also gave an MBC (Staphylococcus aureus [29]) of 0.5 µg/mL, an MIC (Staphylococcus aureus [30]) of 0.25 µg/mL and an MBC (Staphylococcus aureus [31]) of 0.5 µg/mL. The MIC (Staphylococcus aureus [32]) was 16 µg/mL, the MIC (Staphylococcus aureus [33]) was 0.25 µg/mL and the MIC (Staphylococcus aureus [34]) was 0.25 µg/mL.

In the case of `CCCCCCCCCC(=O)CC=O` [HOUTTUYNIN], the MIC (Staphylococcus aureus [1]) was 64 µg/mL (≈ 323 µM), the MBC (Staphylococcus aureus [2]) was 64 µg/mL (≈ 323 µM) and the MBC50 (60.1); MBC90 (60.2) (Staphylococcus aureus [35]; read-out: MIC50) was 128 µg/mL (≈ 645 µM). The MBC50 (60.1); MBC90 (60.2) (Staphylococcus aureus [35]; read-out: MIC90) was 128 µg/mL (≈ 645 µM), the MBC (Staphylococcus aureus [3]) was 32 µg/mL (≈ 161 µM) and the MBC (Staphylococcus aureus [4]) was 64 µg/mL (≈ 323 µM). The MIC (Staphylococcus aureus [5]) was 32 µg/mL (≈ 161 µM), the MIC50 (Staphylococcus aureus [6]) was 16 µg/mL (≈ 80.7 µM) and the MIC90 (Staphylococcus aureus [6]) was 16 µg/mL (≈ 80.7 µM). The MBC50 (Staphylococcus aureus [7]) was 64 µg/mL (≈ 323 µM), the MBC90 (Staphylococcus aureus [7]) was 128 µg/mL (≈ 645 µM) and the MBC (Staphylococcus aureus [8]) was 64 µg/mL (≈ 323 µM). For the same compound, the MBC (Staphylococcus aureus [9]) was 256 µg/mL (≈ 1290 µM), the MIC (Staphylococcus aureus [10]) was 32 µg/mL (≈ 161 µM) and the MIC (Staphylococcus aureus [11]) was 16 µg/mL (≈ 80.7 µM). It also gave an MBC (Staphylococcus aureus [12]) of 32 µg/mL (≈ 161 µM), an MIC (Staphylococcus aureus [13]) of 16 µg/mL (≈ 80.7 µM) and an MIC (Staphylococcus aureus [14]) of 16 µg/mL (≈ 80.7 µM). It also gave an MIC (Staphylococcus aureus [15]) of 16 µg/mL (≈ 80.7 µM), an MBC (Staphylococcus aureus [16]) of 128 µg/mL (≈ 645 µM) and an MBC (Staphylococcus aureus [17]) of 128 µg/mL (≈ 645 µM). It also gave an MBC (Staphylococcus aureus [18]) of 128 µg/mL (≈ 645 µM), an MIC (Staphylococcus aureus [19]) of 64 µg/mL (≈ 323 µM) and an MBC (Staphylococcus aureus [20]) of 64 µg/mL (≈ 323 µM). The MIC50 (Staphylococcus aureus [21]) was 64 µg/mL (≈ 323 µM), the MIC90 (Staphylococcus aureus [21]) was 64 µg/mL (≈ 323 µM) and the MIC (Staphylococcus aureus [22]) was 64 µg/mL (≈ 323 µM). For the same compound, the MBC (Staphylococcus aureus [23]) was 128 µg/mL (≈ 645 µM), the MIC (Staphylococcus aureus [24]) was 32 µg/mL (≈ 161 µM) and the MBC (Staphylococcus aureus [25]) was 64 µg/mL (≈ 323 µM). It also gave an MIC (Staphylococcus aureus [26]) of 64 µg/mL (≈ 323 µM), an MBC (Staphylococcus aureus [27]) of 128 µg/mL (≈ 645 µM) and an MIC (Staphylococcus aureus [28]) of 64 µg/mL (≈ 323 µM). For the same compound, the MBC (Staphylococcus aureus [29]) was 128 µg/mL (≈ 645 µM), the MIC (Staphylococcus aureus [30]) was 64 µg/mL (≈ 323 µM) and the MBC (Staphylococcus aureus [31]) was 128 µg/mL (≈ 645 µM). For the same compound, the MIC (Staphylococcus aureus [32]) was 16 µg/mL (≈ 80.7 µM), the MIC (Staphylococcus aureus [33]) was 64 µg/mL (≈ 323 µM) and the MIC (Staphylococcus aureus [34]) was 64 µg/mL (≈ 323 µM).
